According to publication PMC10028264, “Synergistic antifungal interaction of N-(butylcarbamothioyl) benzamide and amphotericin B against Cryptococcus neoformans” (Frontiers in Microbiology, 2023):
Converted amounts (≈) assume the structure as drawn.

What was measured:
[1] = tested on: LLC-MK2; assay: Cytotoxicity, MTT reduction assay; format: cell-based; conditions: SI = CC90/MIC, MIC 62.5 μg/mL
Protocol: (§1) The effect of BTU-01 was analyzed on mammalian epithelial cell lines [HEp-2 CCL-23™ (ATCC), LLC-MK2, VERO CCL81 and HeLa (Merck, Brazil)], and the cytotoxicity was evaluated as described by [Longhi et al. (2016)] with modifications. Briefly, cells were cultured in Dulbecco’s Modified Eagle’s medium (DMEM) supplemented with 10% fetal bovine serum (Invitrogen, Brazil), 2 mM L-glutamine, 100 IU/mL penicillin, 100 μg/mL streptomycin, 1% tylosin in flat-bottomed 96-well microtiter plates, in 5% CO2 at 37°C for 48 h. Then, the medium was carefully removed and fresh medium containing twofold serially diluted BTU-01 (0.095–500.0 μg/mL) was added. The cells were incubated for further 24 h under the same conditions. Cell viability was analyzed by the MTT reduction assay according to the manufacturer’s recommendation. The concentration of the compound needed to inhibit the viable cells up to 50 and 90% by regression analysis corresponds to the 50% (CC50) and 90% (CC90) cytotoxic concentrations, respectively.
(§2) The concentration of BTU-01 capable of causing 90% of hemolysis/cytotoxicity was used to calculate the selectivity index (SI) using the following equation: SI = CC90/MIC.

[2] = tested on: VERO-CCL81; assay: Cytotoxicity, MTT reduction assay; format: cell-based; conditions: SI = CC90/MIC, MIC 62.5 μg/mL
Protocol: as §1, §2

[3] = Cytotoxicity, MTT reduction assay; format: cell-based; conditions: 24 h, MTT
Protocol: as §1, §2

[4] = tested on: HeLa; assay: Cytotoxicity, MTT reduction assay; format: cell-based; conditions: SI = CC90/MIC, MIC 62.5 μg/mL
Protocol: as §1, §2

[5] = Cytotoxicity, MTT reduction assay; format: cell-based, human; conditions: human, HEp-2 CCL-23 cells, 24 h, MTT
Protocol: as §1, §2

[6] = tested on: HEp-2 CCL-23; assay: Cytotoxicity, MTT reduction assay; format: cell-based, human; conditions: SI = CC90/MIC, MIC 62.5 μg/mL
Protocol: as §1, §2

[7] = Cytotoxicity, MTT reduction assay, ranges over all cell lines; format: cell-based; conditions: different cell lines
Protocol: as §1, §2

[8] = tested on: Cryptococcus neoformans; assay: Checkerboard broth microdilution assay on planktonic cells; format: cell-based; conditions: both strains (ATCC 34872 and 1172)
Protocol: The antifungal effect of BTU-01 combined with AmB was evaluated using the checkerboard broth microdilution assay, according to [Scott et al. (1995)]. Twofold serial dilutions of BTU-01 (0.03–1000.0 μg/mL) and AmB (0.000001–16.0 μg/mL) were respectively added across the rows and columns of the U-bottom 96-well microtiter plates. Thereafter, 100 μL (0.5–2.5 × 10^3 CFU/mL) of fungal inoculum was added and the plates were incubated at 37°C for 72 h. The Fractional Inhibitory Concentration (FIC) of each compound was determined by the ratio of the MIC obtained when the compounds were tested in combination and the MIC of the compounds tested individually. The FIC Index (FICI) was calculated from the sum of the FICBTU–01 and FICAmB, and the value was interpreted as: synergism FICI ≤ 0.5, no interaction 0.5 < FICI < 4.0, and antagonism FICI > 4.0 ([Odds, 2003]).

[9] = tested on: C neoformans mature biofilms; set-up: method as in Martinez and Casadevall, 2006; conditions: strains ATCC 24067, ATCC B3501 and H99; ref Martinez and Casadevall, 2006; cited from earlier work
[10] = African green monkey, VERO CCL81 cells

CCCCNC(=S)NC(=O)c1ccccc1 [BTU-01, N-(butylcarbamothioyl) benzamide]
SI [1]: 2.3
SI [2]: 3.9
CC50 at 24 h [3, 10]: 121 µg/mL (≈ 513 µM)
CC90 at 24 h [3, 10]: 244 µg/mL (≈ 1030 µM)
CC50 at 24 h ([3]; human, HeLa cells): 83.8 µg/mL (≈ 355 µM)
CC90 at 24 h ([3]; human, HeLa cells): 154 µg/mL (≈ 650 µM)
CC50 at 24 h ([3]; rhesus monkey, LLC-MK2 cells): 71.7 µg/mL (≈ 303 µM)
CC90 at 24 h ([3]; rhesus monkey, LLC-MK2 cells): 143 µg/mL (≈ 603 µM)
SI [4]: 2.5
CC50 at 24 h [5]: 104 µg/mL (≈ 441 µM)
CC90 at 24 h [5]: 245 µg/mL (≈ 1040 µM)
SI [6]: 3.9
CC50 at 24 h ([7]; read-out: CC50, range over cell lines): 61 to 121 µg/mL (≈ 258 to 513 µM)
CC90 at 24 h ([7]; read-out: CC90, range over cell lines): 143 to 244 µg/mL (≈ 603 to 1030 µM)
decrease in MIC value in combination [8]: 16 fold

C[C@@H]1[C@H](O)[C@@H](C)/C=C/C=C/C=C/C=C/C=C/C=C/C=C/[C@H](O[C@@H]2O[C@H](C)[C@@H](O)[C@H](N)[C@@H]2O)C[C@@H]2O[C@](O)(C[C@@H](O)C[C@@H](O)[C@H](O)CC[C@@H](O)C[C@@H](O)CC(=O)O[C@H]1C)C[C@H](O)[C@H]2C(=O)O [Amphotericin B, amphotericin B]
concentration inhibiting metabolic activity of mature biofilms [9]: higher than 2.0 μg/mL
